From PubChem BioAssay (NCI)
Several values for one entry are separate records, joined by “and”; a condition that tells them apart may be missing. Identical values can stand only once.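 The compound was tested at five concentrations on cells cultured in 96-well plates, with a 48-hour exposure period. Abbreviation: GI50, concentration required for 50% inhibition of growth. TGI is the concentration that stops growth completely.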

Legend:
Assay in all cases: DTP human tumour cell line panel, 48 h
A549 NSCLC = test system: A549 NSCLC
HT29 colon = test system: HT29 colon
K-562 leukemia = test system: K-562 leukemia
KM12 colon = test system: KM12 colon
NCI/ADR-RES ovarian = test system: NCI/ADR-RES ovarian
RPMI-8226 leukemia = test system: RPMI-8226 leukemia
RXF 393 renal = test system: RXF 393 renal
SN12C renal = test system: SN12C renal
UACC-62 melanoma = test system: UACC-62 melanoma

Compound	TGI (A549 NSCLC)	TGI (HT29 colon)	TGI (K-562 leukemia)	TGI (KM12 colon)	TGI (NCI/ADR-RES ovarian)	TGI (RPMI-8226 leukemia)	TGI (RXF 393 renal)	TGI (SN12C renal)	TGI (UACC-62 melanoma)	GI50 (HT29 colon)	GI50 (K-562 leukemia)	GI50 (KM12 colon)	GI50 (NCI/ADR-RES ovarian)	GI50 (RPMI-8226 leukemia)	GI50 (RXF 393 renal)	GI50 (UACC-62 melanoma)	GI50 (SN12C renal)
CCOC(=O)c1cccc(NC(=O)CCl)c1	29.8 µM	14.1 µM	29 µM	21.4 µM	22.7 µM	15.9 µM	9.9 µM	4.6 µM	6.85 µM	–	–	–	–	–	–	–	–
O=C(c1ccccc1)c1ccc2c(c1)nc1n2C(c2c(Cl)cccc2Cl)SC1 (stereo not drawn)	> 100 µM	> 100 µM	–	> 100 µM	> 100 µM	> 100 µM	> 100 µM	> 100 µM	> 100 µM	–	–	–	–	–	–	–	–
COC(=O)c1c2c(cc3c1CC1(Cc4ccccc4C1=O)C3)CCC2 (stereo not drawn)	> 100 µM	96.9 µM	> 100 µM	61.5 µM	79.3 µM	99.8 µM	98.4 µM	> 100 µM	–	–	–	–	–	–	–	–	–
Cc1nc2c(=S)[nH]ncc2[nH]1	> 100 µM	> 100 µM	> 100 µM	> 100 µM	> 100 µM	> 100 µM	–	> 100 µM	> 100 µM	–	–	–	–	–	–	–	–
COc1cc(/C=C/C(=O)OCC23CC[C@@]4(C(=O)O)CCC(C)[C@H](C)C4C2=CCC2[C@@]4(C)CC[C@H](O)C(C)(C)C4CC[C@]23C)ccc1O (stereo partly drawn)	22.6 µM	42 µM	> 100 µM	> 100 µM	44.9 µM	–	47.4 µM	67.8 µM	41.9 µM	–	–	–	–	–	–	–	–
Cc1ccc(C)n1-c1ccccc1C1SCCCS1	> 100 µM	> 100 µM	> 100 µM	> 100 µM	> 100 µM	> 100 µM	> 100 µM	> 100 µM	> 100 µM	–	–	–	–	–	–	–	–
C1=C\SS/C=C\SS/C=C\SS/C=C\SS/1	> 100 µM	> 100 µM	64 µM	> 100 µM	> 100 µM	> 100 µM	> 100 µM	> 100 µM	> 100 µM	–	–	–	–	–	–	–	–
COC(=O)[C@H](Cc1ccccc1)NC(=O)c1ccc(CNC(=O)/C=C/c2ccc(-c3ccccc3)cc2)cc1	> 100 µM	> 100 µM	> 100 µM	> 100 µM	> 100 µM	> 100 µM	40.3 µM	> 100 µM	> 100 µM	–	–	–	–	–	–	–	–
O=C(Cn1c(=O)oc2ccc(C(=O)c3ccc(F)cc3)cc21)c1ccc([N+](=O)[O-])cc1	> 100 µM	> 100 µM	> 100 µM	87 µM	> 100 µM	> 100 µM	> 100 µM	> 100 µM	> 100 µM	–	–	–	–	–	–	–	–
CC[n+]1cnc(N)c2c(-c3ccc(Cl)cc3)cn(-c3ccc(C)cc3)c21	25.7 µM	17.7 µM	20.7 µM	30.7 µM	26.5 µM	–	18.2 µM	25.2 µM	24.3 µM	–	–	–	–	–	–	–	–
COC(=O)N1CC2(CO)C3CC=C(C(=O)Nc4ccccc4Br)C2C1C3Br (stereo not drawn)	> 50 µM	> 50 µM	> 50 µM	> 50 µM	> 50 µM	> 50 µM	> 50 µM	–	> 50 µM	–	–	–	–	–	–	–	–
CC1=NN(c2nc(N)nc(-c3ccccc3S(N)(=O)=O)n2)C(C)(C)C1	–	> 100 µM	> 100 µM	> 100 µM	52.5 µM	> 100 µM	> 100 µM	–	–	–	–	–	–	–	–	–	–
Nc1nc(Cl)cc(NCC2(O)CC(CO)C2)n1 (stereo not drawn)	> 100 µM	> 100 µM	> 100 µM	> 100 µM	> 100 µM	> 100 µM	> 100 µM	> 100 µM	> 100 µM	–	–	–	–	–	–	–	–
CC(C)(C)OC(=O)CN1CCNCCNCC1	> 100 µM	> 100 µM	> 100 µM	> 100 µM	> 100 µM	> 100 µM	> 100 µM	> 100 µM	> 100 µM	–	–	–	–	–	–	–	–
O=C1c2ccccc2C(=O)N1n1c(Cc2ccccc2)n[nH]c1=O	> 100 µM	> 100 µM	> 100 µM	> 100 µM	> 100 µM	–	–	> 100 µM	> 100 µM	–	–	–	–	–	–	–	–
O=C(O)c1ccccc1.[Ag]	> 58.7 µM	43.7 µM	> 26.4 µM	47.3 µM	> 100 µM	> 23.5 µM	35.9 µM	51 µM	32.3 µM	–	–	–	–	–	–	–	–
C1CC2=C(C1)[Se]C(=C1Sc3nsnc3S1)[Se]2	> 100 µM	> 100 µM	–	> 100 µM	> 100 µM	> 100 µM	–	> 100 µM	> 100 µM	–	–	–	–	–	–	–	–
C=CCNC(=S)Nc1sc2c(c1C(=O)OCC)CC(C)CC2 (stereo not drawn)	60.8 µM	47.1 µM	> 100 µM	> 100 µM	> 100 µM	68.6 µM	83.9 µM	82.8 µM	46.7 µM	–	–	–	–	–	–	–	–
c1ccc(CNC2CC(NCc3ccccn3)CC(NCc3ccccn3)C2)nc1 (stereo not drawn)	6.47 µM and 6.12 µM	14.5 µM and 25 µM and 3.81 µM	34.6 µM and 25 µM and 28.3 µM	3.8 µM and 6 µM and 4.07 µM	> 100 µM	9.64 µM and 25 µM and 13.5 µM	4.11 µM and 9.03 µM and 3.83 µM	20.8 µM and 13.6 µM and 17.7 µM	5.27 µM and 12.1 µM and 3.53 µM	3.19 µM and 8.17 µM and 1.96 µM	3.45 µM and 12.4 µM and 3.71 µM	2.05 µM	> 100 µM	2.96 µM and 6.93 µM and 3.51 µM	1.98 µM and 4.41 µM	2.3 µM and 4.72 µM and 1.83 µM	–
C=C(C)[C@@]1(O)O[C@H]2C[C@@]3(C)OC(=CC3=O)/C(C)=C\[C@@H]3OC(=O)[C@@]1(C)[C@H]32	> 93.3 µM	40.9 µM	35.4 µM	32.5 µM	> 100 µM	> 58.1 µM	26.8 µM	34.9 µM	35.7 µM	–	–	–	–	–	–	–	–
COc1cc2c(cc1OCCCN1CCN(CCCOc3cc4c(cc3OC)C(=O)N3CCC[C@H]3C=N4)CC1)C=CC(C)(C)O2	–	–	1.03 µM	2.14 µM	5.31 µM	0.699 µM	–	1.95 µM	2.73 µM	–	0.32 µM	0.904 µM	2.41 µM	0.232 µM	–	1.42 µM	0.584 µM
FC(F)(F)c1ccc(-c2nc(-c3nc4cc(Cl)c(Cl)cc4[nH]3)c3ccccn23)cc1	–	–	> 100 µM	–	> 100 µM	> 100 µM	5.99 µM	> 100 µM	> 100 µM	–	> 100 µM	–	6.1 µM	> 100 µM	2.26 µM	15.6 µM	> 100 µM
